According to the NIST ThermoML archive (doi:10.1016/j.jct.2013.08.021):

Experiments:
[1] = for viscosity / speed of sound / mass density: 101 kPa, Liquid; for viscosity: Capillary tube (Ostwald / Ubbelohde) method; for speed of sound: Sing-around technique in a fixed-path interferometer; for mass density: Vibrating tube method
[2] = refractive index (Na D-line) (dimensionless); conditions: 101 kPa, Liquid, Standard Abbe refractometry

CCC[N+]1(C)CCCC1.O=S(=O)([N-]S(=O)(=O)C(F)(F)F)C(F)(F)F
Conditions | mass density, [1] [kg/m3] | refractive index, [2] | speed of sound, [1] [m/s] | viscosity, [1] [mPa·s]
293.15 K | 1432.42 | 1.42208 | 1281.9 | 66.61
298.15 K | 1427.86 | 1.42069 | 1270.6 | 49.35
303.15 K | 1423.37 | 1.41928 | 1259 | 38.52
308.15 K | 1418.86 | 1.41787 | 1249.1 | 30.93
313.15 K | 1414.37 | 1.41644 | 1238.2 | 26.17
318.15 K | 1409.9 | 1.415 | 1227.4 | 22.39
323.15 K | 1405.45 | 1.41354 | 1216.9 | 19.31
328.15 K | 1401.01 | 1.41212 | 1205.9 | 17.13
333.15 K | 1396.59 | 1.41073 | 1196.4 | 15.07
338.15 K | 1392.17 | 1.40932 | 1186.3 | 13.36
343.15 K | 1387.77 | 1.40796 | 1176.2 | 11.93

Conditions | Normal melting temperature [°C]
[1], Crystal, DTA | 11.00
